Key:
MDA-MB-231 cells [1] = assay: Carboplatin cytotoxicity, trypan blue test; type: cell-based
Description: (§1) For determination of cell viability, treated as well as non-treated cells were used. MDA-MB-231 and T47D cells were seeded in T-175 tissue culture flasks. At 80% confluency, the growth media was replaced with fresh media containing different concentrations of carboplatin for 48 and 72 h. All experiments were repeated twice. After treatment, the culture media was collected in a 50 ml centrifugation tube, since it might contain dead cells necessary for cell counts. The cell monolayer was washed with PBS and then collected in the same tube. Cells were treated with Trypsin and, Trypsin with the cells was collected in the same 50 ml tube. The suspension was centrifuged (5 min, 1200 rpm) and the supernatant removed. The pellet was washed with PBS, centrifuged (5 min, 1200 rpm) and re-suspended again in complete culture media. Then, a small aliquot of the cell suspension (25 μl) was mixed with the same volume of 0.4% trypan blue (Sigma) solution and the sample was counted after 2 min of staining using a haemocytometer. The number of bright (viable) cells and blue cells (non-viable) were evaluated using a light microscope with a 20-fold magnification. After counting, the cell viability (CV) was expressed as the percentage of surviving cells compared to the total number of cells: CV=(viable cells/total number of cells)×100.
(§2) The concentrations of drugs that were finally toxic to at least 50% of the cell population (IC50/cytotoxicity) were determined. Then, studies were performed looking at viability over the full range of carboplatin concentrations and compared to non-treated BCCs. At day 3-post treatment, viable resistant BCCs were selected and counted using standard protocols for downstream experiments on scaffolds.

T47D cells [2] = assay: Carboplatin cytotoxicity, trypan blue test; type: cell-based
Description: as §1, §2

MDA-MB-231 cells [3] = assay: Carboplatin survival curve for chemotherapy treated and non-treated cells; type: cell-based; details: for percent viability: 220 μg/ml carboplatin
Description: as §1, §2

[4] = tested on: MDA-MB-231 and T47D cells; assay: Western blots of breast cancer cell lines with increasing carboplatin dosage; type: cell-based; details: with increased carboplatin concentration
Description: Western blot was performed to detect the following proteins: Bax, Bcl-2, Oct-4 and Sox-2 for BCCs on scaffolds. Briefly, whole cell extracts were prepared with the NP-40 buffer and nuclear/cytoplasmic extracts with NE-PER Nuclear and Cytoplasmic Extraction kit. BCC extracts (20 μg) were subjected to electrophoresis on 4-20% SDS-PAGE (Bio-Rad; Hercules, Calif.). Proteins were transferred to PVDF membranes, and membranes were incubated overnight in the respective primary antibodies. This was followed by 2 h incubation with HRP-conjugated secondary antibodies at 1:2000 final dilutions. The latter was detected with chemiluminescence. Membranes were stripped with Restore Western Blot Stripping Buffer and then re-probed for other proteins, including β-actin mAb (1:4000 dilution). All bands were normalized to β-actin.

T47D cells [5] = assay: Flow cytometry of CD44/CD24 expression of carboplatin treated cells; type: cell-based
MDA-MB-231 cells [6] = assay: Morphology of cells post addition of carboplatin; type: cell-based
Description: For these studies carboplatin sensitivity of MDA-MB-231 cells was investigated as previously mentioned. Different subpopulations were obtained for subsequent studies on scaffolds. Under normal condition, BCCs population in culture can be seen to be composed of a heterogeneous population of giant multi-nucleated cells mixed with small single-nucleated cells (FIGS. 38a and b.). […] Therefore, cells at 3-4 days post treatment were selected as being carboplatin resistant MDA-MB-231 cells.

MDA-MB-231 cells [7] = details: treated cells
[8] = 2 days post treatment, maximum carboplatin concentration of 50 μg/ml
[9] = 3 days post treatment, 50 μg/ml carboplatin

N.N.O=C([O-])C1(C(=O)[O-])CCC1.[Pt+2] [carboplatin]
death (MDA-MB-231 cells [1]; [8]): 17% | death (MDA-MB-231 cells [1]; [9]): 25% | death (T47D cells [2]; [8]): 28% | death (T47D cells [2]; [9]): 48% | difference in percent viability between non-treated and treated cells (MDA-MB-231 cells [3]; 0 to 100 μg/ml carboplatin): no significant difference | percent viability (MDA-MB-231 cells [3]; chemo-treated cells): 80% | percent viability (MDA-MB-231 cells [3]; non-treated cells): 20% | decrease in percent viability (MDA-MB-231 cells [3]; non-treated cells, 100 to 120 μg/ml carboplatin): 30% | decrease in percent viability (MDA-MB-231 cells [3]; non-treated cells, 140 to 170 μg/ml carboplatin): 40% | decrease in percent viability (MDA-MB-231 cells [3]; non-treated cells, 170 to 220 μg/ml carboplatin): 80% | decrease in percent viability (MDA-MB-231 cells [3]; treated (chemoresistant) cells, 100 to 120 μg/ml carboplatin): 10% | decrease in percent viability (MDA-MB-231 cells [3]; treated (chemoresistant) cells, 140 to 170 μg/ml carboplatin): 20% | decrease in percent viability (MDA-MB-231 cells [3]; treated (chemoresistant) cells, 170 to 220 μg/ml carboplatin): 20% | Bcl-2 expression [4]: increased | Oct-4 expression [4]: increased | Sox2 expression [4]: increased | CD44^+/CD24^+ cells (T47D cells [5]): 29% | CD44^+/CD24^− cells (T47D cells [5]): 0.01% | CD44^−/CD24^− cells (T47D cells [5]): 0.99% | CD44^−/low/CD24^+ cells (T47D cells [5]): 70% | cell morphology (MDA-MB-231 cells [6]; 7 days post carboplatin treatment): fragmented and appeared to be dying | giant multi-nucleated cells in culture (MDA-MB-231 cells [6]; several hours post treatment with carboplatin): no longer present | CD44^+/CD24^+ cells (MDA-MB-231 cells [7]): 81.4% | CD44^+/CD24^− cells (MDA-MB-231 cells [7]): 18% | CD44^−/CD24^+ cells (MDA-MB-231 cells [7]): 0.09% | CD44^−/CD24^− cells (MDA-MB-231 cells [7]): 0.51%
